# Test results: PubChem BioAssay AID1919014 (Molecular Pharmacology Branch, DTP, NCI, 2023)
# Tested on: NCI-H1341 complex spheroids, percent test/control
# Experiment: Anticancer human tumor NCI-H1341 cell line growth inhibition [AhR];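 further: spheroids exposed to agents for seven days before readout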
# Conditions: for IC50: curve of first compound; for viability, T/C: stronger effect = lower value
# Outline: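 Complex tumor spheroids co-cultured with HUVEC and human MSC stroma; AhR antagonists tested in combination with standard-of-care and investigational agents. Top concentration at or near clinical Cmax (else 10 microM), half-log dilutions; growth expressed as percent test/control.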
# [1] = second compound 0.1 µM, first compound 0.0316 µM
# [2] = second compound 0.1 µM, first compound 0.1 µM
# [3] = second compound 0.1 µM, first compound 0.316 µM
# [4] = second compound 0.1 µM, first compound 1 µM
# [5] = second compound 0.1 µM, first compound 3.16 µM
# [6] = second compound 0.1 µM, first compound 10 µM
# [7] = second compound 0.316 µM, first compound 0.0316 µM
# [8] = second compound 0.316 µM, first compound 0.1 µM
# [9] = second compound 0.316 µM, first compound 0.316 µM
# [10] = second compound 0.316 µM, first compound 1 µM
# [11] = second compound 0.316 µM, first compound 3.16 µM
# [12] = second compound 0.316 µM, first compound 10 µM
# [13] = second compound 1 µM, first compound 0.0316 µM
# [14] = second compound 1 µM, first compound 0.1 µM
# [15] = second compound 1 µM, first compound 0.316 µM
# [16] = second compound 1 µM, first compound 1 µM
# [17] = second compound 1 µM, first compound 3.16 µM
# [18] = second compound 1 µM, first compound 10 µM
# [19] = second compound 3.16 µM, first compound 0.0316 µM
# [20] = second compound 3.16 µM, first compound 0.1 µM
# [21] = second compound 3.16 µM, first compound 0.316 µM
# [22] = second compound 3.16 µM, first compound 1 µM
# [23] = second compound 3.16 µM, first compound 3.16 µM
# [24] = second compound 3.16 µM, first compound 10 µM
# [25] = second compound 10 µM, first compound 0.0316 µM
# [26] = second compound 10 µM, first compound 0.1 µM
# [27] = second compound 10 µM, first compound 0.316 µM
# [28] = second compound 10 µM, first compound 1 µM
# [29] = second compound 10 µM, first compound 3.16 µM
# [30] = second compound 10 µM, first compound 10 µM
# [31] = second compound 0.1 µM, first compound 0.00949 µM
# [32] = second compound 0.1 µM, first compound 0.03 µM
# [33] = second compound 0.1 µM, first compound 0.0949 µM
# [34] = second compound 0.1 µM, first compound 0.3 µM
# [35] = second compound 0.316 µM, first compound 0.00949 µM
# [36] = second compound 0.316 µM, first compound 0.03 µM
# [37] = second compound 0.316 µM, first compound 0.0949 µM
# [38] = second compound 0.316 µM, first compound 0.3 µM
# [39] = second compound 1 µM, first compound 0.00949 µM
# [40] = second compound 1 µM, first compound 0.03 µM
# [41] = second compound 1 µM, first compound 0.0949 µM
# [42] = second compound 1 µM, first compound 0.3 µM
# [43] = second compound 3.16 µM, first compound 0.00949 µM
# [44] = second compound 3.16 µM, first compound 0.03 µM
# [45] = second compound 3.16 µM, first compound 0.0949 µM
# [46] = second compound 3.16 µM, first compound 0.3 µM
# [47] = second compound 10 µM, first compound 0.00949 µM
# [48] = second compound 10 µM, first compound 0.03 µM
# [49] = second compound 10 µM, first compound 0.0949 µM
# [50] = second compound 10 µM, first compound 0.3 µM
smiles,measurement,setting,value
CC1(C)CCC(CN2CCN(c3ccc(C(=O)NS(=O)(=O)c4ccc(NCC5CCOCC5)c([N+](=O)[O-])c4)c(Oc4cnc5[nH]ccc5c4)c3)CC2)=C(c2ccc(Cl)cc2)C1 + Cc1ccccc1N=Nc1ccc(NC(=O)c2ccnn2C)c(C)c1,IC50,second compound 0.1 µM,1970 nM
same,IC50,second compound 0.316 µM,2260 nM
same,IC50,second compound 1 µM,1990 nM
same,IC50,second compound 3.16 µM,539 nM
same,IC50,second compound 10 µM,< 31.6 nM
same,"viability, T/C",[1],96.5%
same,"viability, T/C",[2],86%
same,"viability, T/C",[3],96%
same,"viability, T/C",[4],60.5%
same,"viability, T/C",[5],41.3%
same,"viability, T/C",[6],12.6%
same,"viability, T/C",[7],100%
same,"viability, T/C",[8],82.3%
same,"viability, T/C",[9],94.2%
same,"viability, T/C",[10],78.3%
same,"viability, T/C",[11],38.1%
same,"viability, T/C",[12],14.3%
same,"viability, T/C",[13],80.3%
same,"viability, T/C",[14],70.2%
same,"viability, T/C",[15],84.2%
same,"viability, T/C",[16],72.3%
same,"viability, T/C",[17],34.6%
same,"viability, T/C",[18],14.1%
same,"viability, T/C",[19],80%
same,"viability, T/C",[20],54.4%
same,"viability, T/C",[21],61%
same,"viability, T/C",[22],46.7%
same,"viability, T/C",[23],30.1%
same,"viability, T/C",[24],16.5%
same,"viability, T/C",[25],44.2%
same,"viability, T/C",[26],39.9%
same,"viability, T/C",[27],44.5%
same,"viability, T/C",[28],35.4%
same,"viability, T/C",[29],22%
same,"viability, T/C",[30],12.8%
CC1COCCN1c1cc(C2(S(C)(=N)=O)CC2)nc(-c2ccnc3[nH]ccc23)n1 (stereo not given) + Cc1ccccc1N=Nc1ccc(NC(=O)c2ccnn2C)c(C)c1,IC50,second compound 0.1 µM,1600 nM
same,IC50,second compound 0.316 µM,3530 nM
same,IC50,second compound 1 µM,3150 nM
same,IC50,second compound 3.16 µM,2110 nM
same,IC50,second compound 10 µM,721 nM
same,"viability, T/C",[1],92.7%
same,"viability, T/C",[2],92.3%
same,"viability, T/C",[3],94.4%
same,"viability, T/C",[4],57.6%
same,"viability, T/C",[5],45.2%
same,"viability, T/C",[6],30.3%
same,"viability, T/C",[7],77.1%
same,"viability, T/C",[8],108%
same,"viability, T/C",[9],89%
same,"viability, T/C",[10],81.2%
same,"viability, T/C",[11],52.2%
same,"viability, T/C",[12],31.1%
same,"viability, T/C",[13],88.2%
same,"viability, T/C",[14],114%
same,"viability, T/C",[15],83.2%
same,"viability, T/C",[16],84.3%
same,"viability, T/C",[17],48.6%
same,"viability, T/C",[18],29.4%
same,"viability, T/C",[19],77.9%
same,"viability, T/C",[20],90.2%
same,"viability, T/C",[21],69.2%
same,"viability, T/C",[22],63.4%
same,"viability, T/C",[23],43.6%
same,"viability, T/C",[24],26%
same,"viability, T/C",[25],55.9%
same,"viability, T/C",[26],57.5%
same,"viability, T/C",[27],55.5%
same,"viability, T/C",[28],47.6%
same,"viability, T/C",[29],34.5%
same,"viability, T/C",[30],25.4%
CCN(c1cc(-c2ccc(CN3CCOCC3)cc2)cc(C(=O)NCc2c(C)cc(C)[nH]c2=O)c1C)C1CCOCC1 + Cc1ccccc1N=Nc1ccc(NC(=O)c2ccnn2C)c(C)c1,IC50,second compound 0.1 µM,> 3000 nM
same,IC50,second compound 0.316 µM,> 3000 nM
same,IC50,second compound 1 µM,> 3000 nM
same,IC50,second compound 3.16 µM,> 3000 nM
same,IC50,second compound 10 µM,> 3000 nM
same,"viability, T/C",[31],95.8%
same,"viability, T/C",[32],85.1%
same,"viability, T/C",[33],75.5%
same,"viability, T/C",[34],104%
same,"viability, T/C","second compound 0.1 µM, first compound 0.949 µM",90.9%
same,"viability, T/C","second compound 0.1 µM, first compound 3 µM",107%
same,"viability, T/C",[35],90.2%
same,"viability, T/C",[36],103%
same,"viability, T/C",[37],89.6%
same,"viability, T/C",[38],87.1%
same,"viability, T/C","second compound 0.316 µM, first compound 0.949 µM",104%
same,"viability, T/C","second compound 0.316 µM, first compound 3 µM",73.1%
same,"viability, T/C",[39],91.6%
same,"viability, T/C",[40],102%
same,"viability, T/C",[41],94.7%
same,"viability, T/C",[42],90.6%
same,"viability, T/C","second compound 1 µM, first compound 0.949 µM",79.8%
same,"viability, T/C","second compound 1 µM, first compound 3 µM",100%
same,"viability, T/C",[43],75.2%
same,"viability, T/C",[44],75.1%
same,"viability, T/C",[45],70.6%
same,"viability, T/C",[46],71%
same,"viability, T/C","second compound 3.16 µM, first compound 0.949 µM",73.3%
same,"viability, T/C","second compound 3.16 µM, first compound 3 µM",60.6%
same,"viability, T/C",[47],54.9%
same,"viability, T/C",[48],45.6%
same,"viability, T/C",[49],54.6%
same,"viability, T/C",[50],52.2%
same,"viability, T/C","second compound 10 µM, first compound 0.949 µM",49.8%
same,"viability, T/C","second compound 10 µM, first compound 3 µM",66.5%
Nc1ncn(C2CC(O)C(CO)S2)c(=O)n1 (stereo not given) + Cc1ccccc1N=Nc1ccc(NC(=O)c2ccnn2C)c(C)c1,IC50,second compound 0.1 µM,165 nM
same,IC50,second compound 0.316 µM,281 nM
same,IC50,second compound 1 µM,263 nM
same,IC50,second compound 3.16 µM,236 nM
same,IC50,second compound 10 µM,17.4 nM
same,"viability, T/C","second compound 0.1 µM, first compound 0.000949 µM",71.8%
same,"viability, T/C","second compound 0.1 µM, first compound 0.003 µM",84.3%
same,"viability, T/C",[31],83.3%
same,"viability, T/C",[32],65%
same,"viability, T/C",[33],61.3%
same,"viability, T/C",[34],40%
same,"viability, T/C","second compound 0.316 µM, first compound 0.000949 µM",78.8%
same,"viability, T/C","second compound 0.316 µM, first compound 0.003 µM",95%
same,"viability, T/C",[35],93.2%
same,"viability, T/C",[36],87.7%
same,"viability, T/C",[37],78%
same,"viability, T/C",[38],48.1%
same,"viability, T/C","second compound 1 µM, first compound 0.000949 µM",78.2%
same,"viability, T/C","second compound 1 µM, first compound 0.003 µM",85.8%
same,"viability, T/C",[39],84.9%
same,"viability, T/C",[40],81.3%
same,"viability, T/C",[41],74.1%
same,"viability, T/C",[42],46.8%
same,"viability, T/C","second compound 3.16 µM, first compound 0.000949 µM",88%
same,"viability, T/C","second compound 3.16 µM, first compound 0.003 µM",62.4%
same,"viability, T/C",[43],66%
same,"viability, T/C",[44],69.6%
same,"viability, T/C",[45],62.6%
same,"viability, T/C",[46],43.8%
same,"viability, T/C","second compound 10 µM, first compound 0.000949 µM",51.4%
same,"viability, T/C","second compound 10 µM, first compound 0.003 µM",54.6%
same,"viability, T/C",[47],53%
same,"viability, T/C",[48],45.8%
same,"viability, T/C",[49],45.2%
same,"viability, T/C",[50],34.9%
